These are literature values, as cited in patent US20050002974A1, “Itch-relieving cosmetic or dermatological preparation” (Beiersdorf AG, priority 2002, published 2005).

The conditions of data set [1]: rubbed into the skin.
For data set [2] the following is noted: used in aqueous solutions.

As for `CC1CCC(C(C)C)C(O)C1` (centres unmarked) [menthol, Menthol], the “feel on the skin” value in data set [1] was “pleasant cooling feel”.
With “polyethylene glycol (9) monododecyl ether [polidocanol]”, the local anesthetic properties result in data set [2] was “strong local anesthetic properties”.
